Results as given in US4530790A, “Cholecystokinin antagonists” (Merck & Co., Inc., priority 1983, dated 1985).
pIC50, pKi: −log10 of the molar value.

Key:
CCK = assay: Capacity to antagonize CCK, relative to the compound of Formula I; settings: based on the activity of the compound of Formula I (1 x)
Text: The minor components A-D have also been tested for their capacity to antagonize CCK. Based on the activity of the compound of Formula I, the minor components relative activities are: […]

CCK receptor = biological target: T1, CCK receptor (Rattus norvegicus, UniProt P30551); assay: CCK receptor binding (inhibition of specific 125I-CCK-33 binding to whole pancreas membranes); design: species or system Male Sprague-Dawley rats; settings: for pIC50: rat pancreas, pH 7.7, 37° C., 30 minutes; for effect on the 125I-CCK receptor binding assay: added protease inhibitors, 1.2 mM phenylmethane sulfonyl fluoride, 0.5 mM o-phenanthroline in assay buffer
T1 construct: The whole pancreas was dissected free of fat tissue and was homogenized; from tissue; host or cells: rat whole pancreas membranes
T1 sequence (P30551 1-444): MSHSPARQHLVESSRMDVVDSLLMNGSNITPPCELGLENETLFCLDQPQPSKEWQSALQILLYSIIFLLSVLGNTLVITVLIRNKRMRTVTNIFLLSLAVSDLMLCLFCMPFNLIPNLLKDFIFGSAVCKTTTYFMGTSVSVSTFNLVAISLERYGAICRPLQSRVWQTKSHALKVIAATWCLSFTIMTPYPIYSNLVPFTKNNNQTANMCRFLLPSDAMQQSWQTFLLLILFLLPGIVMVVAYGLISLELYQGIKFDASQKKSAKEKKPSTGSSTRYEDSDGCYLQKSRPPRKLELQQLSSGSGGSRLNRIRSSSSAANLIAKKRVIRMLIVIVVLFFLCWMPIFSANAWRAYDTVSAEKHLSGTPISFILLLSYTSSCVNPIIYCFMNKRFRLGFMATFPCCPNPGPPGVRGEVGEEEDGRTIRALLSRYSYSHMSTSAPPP
Method: CCK-33 was radiolabeled with ^125 I-Bolton Hunter reagent (2000 Ci/mmole) as described by Sankara et al. (J. Biol. Chem. 254: 9349-9351, 1979). Receptor binding was performed according to Innis and Snyder (Proc. Natl. Acad. Sci. 77: 6917-6921, 1980) with the minor modification of adding the additional protease inhibitors, phenylmethane sulfonyl fluoride and o-phenanthroline. The latter two compounds have no effect of the ^125 I-CCK receptor binding assay.
Male Sprague-Dawley rats (200-350 g) were sacrificed by decapitation. The whole pancreas was dissected free of fat tissue and was homogenized in 20 volumes of ice-cold 50 mM, Tris HCl (pH 7.7 at 25° C.) with a Brinkmann Polytron PT 10. The homogenates were centrifuged at 48,000 g for 10 min. Pellets were resuspended in Tris Buffer, centrifuged as above and resuspended in 200 volumes of binding assay buffer (50 mM Tris HCl, pH 7.7 at 25° C., 5 mM dithiothreitol, 0.1 mM bacitracin, 1.2 mM phenylmethane sulfonyl fluoride and 0.5 mM o-phenanthroline). For the binding assay, 25 μl of buffer (for total binding) or unlabeled CCK-8 sulfate to give a final concentration of 1 μM (for nonspecific binding) or the compound of Formula I (for determination inhibition of ^125 I-CCK binding) and 25 μl of ^125 I-CCK-33 (30,000-40,000 cpm) were added to 450 μl of the membrane suspensions in microfuge tubes. All assays were run in duplicate or triplicate. The reaction mixtures were incubated at 37° C. for 30 minutes and centrifuged in a Beckman Microfuge (4 minutes) immediately after adding 1 ml of ice-cold incubation buffer. The supernatant was aspirated and discarded, pellets were counted with a Beckman gamma 5000. For Scatchard analysis (Ann. N.Y. Acad. Sci. 51: 660, 1949), ^125 I-CCK-33 was progressively diluted with increasing concentrations of CCK-33.

[1] = biological target: T2, isolated guinea pig gall bladder (CCK-8) (Cavia porcellus, UniProt Q63931); assay: Isolated guinea pig gall bladder, antagonism of CCK-8 induced contraction; design: species or system Male Hartley guinea pigs
T2 construct: The whole gall bladder was dissected free from adjacent tissues; from tissue; host or cells: guinea pig gall bladder
T2 sequence (Q63931 1-430): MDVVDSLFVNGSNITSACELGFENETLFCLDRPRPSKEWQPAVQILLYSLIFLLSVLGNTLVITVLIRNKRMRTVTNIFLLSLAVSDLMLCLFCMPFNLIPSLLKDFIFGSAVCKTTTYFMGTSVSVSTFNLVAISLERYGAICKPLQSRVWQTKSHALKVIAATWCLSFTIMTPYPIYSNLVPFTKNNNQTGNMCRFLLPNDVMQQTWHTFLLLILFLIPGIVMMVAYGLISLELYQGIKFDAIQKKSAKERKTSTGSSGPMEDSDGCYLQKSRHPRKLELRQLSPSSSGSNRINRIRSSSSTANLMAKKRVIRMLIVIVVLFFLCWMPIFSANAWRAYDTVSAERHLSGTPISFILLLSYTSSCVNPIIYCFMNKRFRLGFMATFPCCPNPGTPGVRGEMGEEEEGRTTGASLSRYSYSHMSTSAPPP
Method: Male Hartley guinea pigs (400-600 g) were sacrificed by decapitation. The whole gall bladder was dissected free from adjacent tissues and its content gently squeezed out. The whole bladder was suspended in 5 ml organ bath under 1 g tension. The organ bath contained a Kreb's bicarbonate solution (NaCl 118 mM, KCl 4.75 mM, CaCl 2.54 mM, KH2 PO4 1.19 mM, Mg SO4 1.2 mM, NaHCO3 25 mM and dextrose 11 mM) maintained at 32° C. and bubbled with 95% O2 and 5% CO2. Isometric contractions were recorded using Statham (60 g; 0.12 mm) strain gauges and a Hewlett-Packard (77588) recorder. The tissues were washed every 10 minutes for 1 hr to obtain equilibrium prior to the beginning of the study. CCK-8 was added cumulatively to the baths and EC50 's determined using regression analysis. After washout (every 10 minutes for 1 hr), the compound of Formula I was added at least 5 minutes before the addition of CCK-8 and the EC50 of CCK-8 in the presence of the compound of Formula I similarly determined. The PA2 values and slope were obtained from regression analysis of a Schild plot (Brit. J. Pharmacol. 14: 48-58, 1959) using three concentrations of the compound of Formula I and 3-4 tissues at each concentration.

[2] = Solubility characteristics; assay type: physicochemical
[3] = biological target: T3, isolated longitudinal muscle of guinea pig ileum (CCK-8) (Cavia porcellus, UniProt Q63931); assay: Isolated longitudinal muscle of guinea pig ileum, antagonism of CCK-8 induced contraction; design: species or system Male Hartley guinea pigs
T3 construct: Longitudinal muscle strips with attached nerve plexus were prepared; from tissue; host or cells: guinea pig ileum longitudinal muscle with attached nerve plexus
T3 sequence (Q63931 1-430): T2 sequence (Q63931 1-430)
Method: Longitudinal muscle strips with attached nerve plexus were prepared as described previously (Brit J. Pharmac. 23:; 356-363, 1964; J. Physiol. 194: 13-33, 1969). Male Hartley guinea pigs were decapitated and the ileum was removed (10 cm of the terminal ileum was discarded and the adjacent 20 cm piece was used). A piece (10 cm) of the ileum was stretched on a glass pipette. Using a cotton applicator to stroke tangently away from the mesentery attachment at one end, the longitudinal muscle was separated from the underlying circular muscle. The longitudinal muscle was then tied to a thread and by gently pulling, stripped away from the entire muscle. A piece of approximately 2 cm was suspended in 5 ml organ bath containing Krebs solution and bubbled with 95% O2 and 5% CO2 at 37° C. under 0.5 g tension. CCK-8 was added cumulatively to the baths and EC50 and pA2 values determined as described in the gall bladder preparation (above).

Q: With `O=C1c2ccccc2-n2c(nc3ccccc3c2=O)[C@@H]2C[C@]3(O)c4ccccc4N[C@@H]3N12` [Component A] as the compound, how does the “relative activity to antagonize CCK” value (CCK) read?
A: 1/70

Q: For `O=C1NC(Cc2c[nH]c3ccccc23)c2nc3ccccc3c(=O)n2-c2ccccc21` (stereo not drawn) [Component B], which “relative activity to antagonize CCK” value (CCK) is on record?
A: 1/7

Q: For `O=C1Nc2ccccc2-c2nc3ccccc3c(=O)n2C1Cc1c[nH]c2ccccc12` (stereo not drawn) [Component C], which “relative activity to antagonize CCK” value (CCK) is on record?
A: 1/30

Q: For `CC(C)C[C@H]1C(=O)N2c3ccccc3[C@@](O)(C[C@@H]3NC(=O)c4ccccc4-n4c3nc3ccccc3c4=O)[C@H]2N1O` [Component D], which “relative activity to antagonize CCK” value (CCK) is on record?
A: 5 x

Q: For `CC(C)C[C@@H]1N[C@H]2N(C1=O)c1ccccc1[C@@]2(O)C[C@@H]1NC(=O)c2ccccc2-n2c1nc1ccccc1c2=O` [Formula I], which “effect on KD (dissociation constant) and Bmax (maximum receptor number) of 125I-CCK-33” value (CCK receptor; Scatchard analysis, 1.3 μM) is on record?
A: increased the KD (dissociation constant) without affecting the Bmax (maximum receptor number)

Q: And the “mode of inhibition of specific 125I-CCK-33 receptor binding” value (CCK receptor; Scatchard analysis, absence and presence of 1.3 μM)?
A: competitively inhibited specific ^125 I-CCK-33 receptor binding

Q: And the pKi (CCK receptor; estimated, 125I-CCK-33 receptor binding, read-out: Ki value (dissociation constant of inhibitor))?
A: 6.05

Q: And the pIC50 (CCK receptor)?
A: 5.88

Q: And the pIC50 (CCK receptor; printed in parentheses)?
A: 5.89

Q: And the “effect on CCK-8 dose-response” value ([1]; 1.3-13 μM)?
A: concentration dependent parallel shift to the right of the CCK-8 dose-response without change in the maximal contractile response

Q: What about the mode of antagonism ([1]; CCK-8) of the same compound?
A: competitive antagonist of CCK-8

Q: And the “slope of the Schild plot” value ([1]; CCK-8)?
A: 0.95±0.19

Q: And the Kb ([1]; CCK-8, three concentrations, 3-4 tissues each, read-out: pA2 value (Schild plot) (converted))?
A: 1000 nM

Q: What about the Ki ([1]; from Schild plot pA2, read-out: Ki value corresponding to pA2 (converted)) of the same compound?
A: 1000 nM

Q: What about the “solubility: soluble in” value ([2]; CHCl3, MeOH, EtOH, acetone, DMSO) of the same compound?
A: soluble in: CHCl3, MeOH, EtOH, acetone, DMSO

Q: What about the “solubility: insoluble in” value ([2]; H2O, hexane, pet. ether) of the same compound?
A: insoluble in: H2 O, hexane, pet. ether

Q: What about the mode of antagonism [3] of the same compound?
A: competitive antagonism of CCK

Q: And the “effect on CCK-8 dose-response” value ([3]; 1.3-13 μM)?
A: concentration dependent parallel shift to the right of the CCK-8 dose-response without change in the maximal contractile response

Q: What about the “slope of the Schild plot” value ([3]; CCK-8) of the same compound?
A: 0.89±0.20

Q: And the Kb ([3]; CCK-8, read-out: pA2 value (Schild plot) (converted))?
A: 398 nM

Q: And the Ki ([3]; from Schild plot pA2, read-out: Ki corresponding to pA2 (converted))?
A: 400 nM

Q: And the “relative activity to antagonize CCK” value (CCK)?
A: 1 x

Q: Which “effect on the 125I-CCK receptor binding assay” value (CCK receptor) does the source give for `c1cnc2c(c1)ccc1cccnc12` [o-phenanthroline, reference compound] here?
A: no effect

Q: For `O=S(=O)(F)Cc1ccccc1` [phenylmethane sulfonyl fluoride, reference compound], which “effect on the 125I-CCK receptor binding assay” value (CCK receptor) is on record?
A: no effect
